Test results from patent US10232035B2, “Conditionally replication deficient herpes virus and use thereof in vaccines” (THE REGENTS OF THE UNIVERSITY OF COLORADO, A BODY CORPORATE, priority 2012, dated 2019).

Tested on: SVV mutant 2
Settings: decreasing amounts of TMP, FIG. 6
Text: Replication of mutant 2 was monitored by GFP expression (FIG. 5). […] GFP expression was monitored using an inverted microscope.

## COc1cc(Cc2cnc(N)nc2N)cc(OC)c1OC [TMP, trimethoprim]
  lowest amount of TMP that can be used with SVV mutant 2: 0.05 µM
